Experiments:
[1] = system: control sera (pooled serum of ten healthy LUMC hospital workers; commercial negative donor pooled serum from the Dutch bloodbank); format: binding, human; parameters: Binding of Control serum LUMC to linear peptides / Binding of Control serum Blood-bank to linear peptides / Binding of Control serum LUMC to looped peptides / Binding of Control Serum Blood-Bank to Looped peptides / Binding of Control serum LUMC to linear peptides of the protein M of SARS-CoV Urbani / Binding of Control serum Blood-bank to linear peptides of the protein M of SARS-CoV Urbani / Binding of Control serum LUMC to looped peptides of the protein M of SARS-CoV Urbani / Binding of Control Serum Blood-Bank to Looped peptides of the protein M of SARS-CoV Urbani: unit not given here
[2] = system: antibodies in sera from SARS patients (sera 1a, 1b, 2, 6, 37, 62, London, SARS-yellow, SARS-green); format: binding, human; parameters: Binding of serum 6 to linear peptides of protein X1 of SARS-CoV Urbani / Binding of serum 37 to linear peptides of protein X1 of SARS-CoV Urbani / Binding of serum 6 to looped/cyclic peptide (PEPSCAN-ELISA) / Binding of serum 37 to looped/cyclic peptide (PEPSCAN-ELISA) / Binding of serum 37 to looped/cyclic peptides of protein X1 of SARS-CoV Urbani / Binding of serum 6 to linear peptides of protein X2 / Binding of serum 37 to linear peptides of protein X2 / Binding of serum 37 to looped/cyclic peptides of protein X2 of SARS-CoV Urbani / Binding of serum 6 to linear peptides of protein M of SARS-CoV Urbani / Binding of serum 37 to linear peptides of protein M of SARS-CoV Urbani / Binding of serum 6 to looped/cyclic peptides of protein M of SARS-CoV Urbani / Binding of serum 37 to looped/cyclic peptides of protein M of SARS-CoV Urbani / Binding of serum 6 to linear peptides of protein X3 of SARS-CoV Urbani / Binding of serum 37 to linear peptides of protein X3 of SARS-CoV Urbani / Binding of serum 37 to looped/cyclic peptides of protein X3 of SARS-CoV Urbani / Binding of serum 6 to linear peptides of protein X4 of SARS-CoV Urbani / Binding of serum 37 to linear peptides of protein X4 of SARS-CoV Urbani / Binding of serum 37 to looped/cyclic peptides of protein X4 of SARS-CoV Urbani / Binding of serum 6 to linear peptides of protein X5 of SARS-CoV Urbani / Binding of serum 37 to linear peptides of protein X5 of SARS-CoV Urbani / Binding of serum 37 to looped/cyclic peptides of protein X5 of SARS-CoV Urbani / Binding of serum 6 to linear peptides of protein N of SARS-CoV Urbani / Binding of serum 37 to linear peptides of protein N of SARS-CoV Urbani / Binding of serum 6 to linear peptide (PEPSCAN-ELISA) / Binding of serum 1a to looped/cyclic peptides of protein N of SARS-CoV Urbani / Binding of serum 1b to looped/cyclic peptides of protein N of SARS-CoV Urbani / Binding of serum 2 to looped/cyclic peptides of protein N of SARS-CoV Urbani / Binding of serum 6 to looped/cyclic peptides of protein N of SARS-CoV Urbani / Binding of serum 37 to looped/cyclic peptides of protein N of SARS-CoV Urbani / Binding of serum 62 to looped/cyclic peptides of protein N of SARS-CoV Urbani / Binding of serum London to looped/cyclic peptides of protein N of SARS-CoV Urbani / Binding of serum SARS-green to looped/cyclic peptides of protein N of SARS-CoV Urbani: unit not given here
[3] = system: rabbit serum obtained by immunizing a rabbit with the SARS-CoV strain Frankfurt 1; format: binding; parameters: Binding of a rabbit serum to linear peptides / Binding of a rabbit serum to looped peptides / Rabbit serum linear peptides / Rabbit serum looped peptides / Binding of a rabbit serum to linear peptides of protein N of SARS-CoV Urbani (Rabbit serum linear peptides) / Binding of a rabbit serum to looped/cyclic peptides of protein N of SARS-CoV Urbani (Rabbit serum looped peptides): unit not given here
[4] = system: recombinant human anti-SARS-CoV antibody 03-018; format: binding; parameters: Binding of antibody 03-018 to linear peptides of the N protein of SARS-CoV Urbani / Binding of antibody 03-018 to looped/cyclic peptides of the N protein of SARS-CoV Urbani: unit not given here

| Sequence | Control Serum Blood-Bank Looped peptides [1] | Control serum Blood-bank linear peptides [1] | Control serum LUMC linear peptides [1] | Control serum LUMC looped peptides [1] | Binding of serum 1a to linear peptides of protein N of SARS-CoV Urbani [2] | Binding of serum 1a to looped/cyclic peptides of protein N of SARS-CoV Urbani [2] | Binding of serum 1b to linear peptides of protein N of SARS-CoV Urbani [2] | Binding of serum 1b to looped/cyclic peptides of protein N of SARS-CoV Urbani [2] | Binding of serum 2 to linear peptides of protein N of SARS-CoV Urbani [2] | Binding of serum 2 to looped/cyclic peptides of protein N of SARS-CoV Urbani [2] | Binding of serum 6 to looped/cyclic peptides of protein N of SARS-CoV Urbani [2] | Binding of serum 37 to looped/cyclic peptides of protein N of SARS-CoV Urbani [2] | Binding of serum 62 to looped/cyclic peptides of protein N of SARS-CoV Urbani [2] | Binding of serum London to looped/cyclic peptides of protein N of SARS-CoV Urbani [2] | Binding of serum SARS-green to looped/cyclic peptides of protein N of SARS-CoV Urbani [2] | Binding of serum SARS-yellow to looped/cyclic peptides of protein N of SARS-CoV Urbani [2] | Binding of a rabbit serum to linear peptides of protein N of SARS-CoV Urbani (Rabbit serum linear peptides) [3] | Binding of a rabbit serum to looped/cyclic peptides of protein N of SARS-CoV Urbani (Rabbit serum looped peptides) [3] | Binding of antibody 03-018 to linear peptides of the N protein of SARS-CoV Urbani [4] | Binding of antibody 03-018 to looped/cyclic peptides of the N protein of SARS-CoV Urbani [4] | other results |
| --- | --- | --- | --- | --- | --- | --- | --- | --- | --- | --- | --- | --- | --- | --- | --- | --- | --- | --- | --- | --- | --- |
| KKKTDEAQPLPQRQK | 0.4 | 0.9 | 0.8 | 0.3 | 0.2 | 0.2 | 0.1 | 0.1 | 0.2 | 0.1 | 0.0 | 0.3 | 0.2 | 0.3 | 0.0 | 0.0 | 0.2 | 0.1 | 0.1 | 0.2 | Binding of serum 6 to linear peptides of protein N of SARS-CoV Urbani [2]: 0.7; Binding of serum 37 to linear peptides of protein N of SARS-CoV Urbani [2]: 0.9; Binding of serum 62 to linear peptides of protein N of SARS-CoV Urbani [2]: 0.6; Binding of serum London to linear peptides of protein N of SARS-CoV Urbani [2]: 1.1; Binding of serum SARS-green to linear peptides of protein N of SARS-CoV Urbani [2]: 0.4; Binding of serum SARS-yellow to linear peptides of protein N of SARS-CoV Urbani [2]: 1.0 |
| KKSAAEASKKPRQKR | – | – | – | – | – | 0.2 | – | 0.1 | – | 0.3 | 0.2 | 0.5 | 0.3 | 0.4 | 0.2 | 0.3 | 0.4 | 0.8 | 0.1 | 0.2 | Binding of Control Serum Blood-Bank to Looped peptides [1]: 0.5; Binding of Control serum Blood-bank to linear peptides [1]: 1.0; Binding of Control serum LUMC to linear peptides [1]: 1.0; Binding of Control serum LUMC to looped peptides [1]: 0.5; Recognition of the peptide by sera of SARS-CoV infected individuals, and form (linear, looped/cyclic) in which it is recognized [2]: recognized in linear form |
| KQPTVTLLPAADMDD | 0.4 | 0.7 | 0.7 | 0.3 | 0.3 | 0.3 | 0.2 | 0.2 | 0.2 | 0.2 | 0.0 | 0.4 | 0.3 | 0.2 | 0.6 | 0.3 | 0.1 | 0.1 | 0.1 | 0.2 | Binding of serum 6 to linear peptides of protein N of SARS-CoV Urbani [2]: 0.2; Binding of serum 37 to linear peptides of protein N of SARS-CoV Urbani [2]: 1.2; Binding of serum 62 to linear peptides of protein N of SARS-CoV Urbani [2]: 0.8; Binding of serum London to linear peptides of protein N of SARS-CoV Urbani [2]: 0.6; Binding of serum SARS-green to linear peptides of protein N of SARS-CoV Urbani [2]: 2.4; Binding of serum SARS-yellow to linear peptides of protein N of SARS-CoV Urbani [2]: 1.1 |

Reference: patent publication US20070128217A1 (priority 2003, published 2007)
